For assay [1], the target named is T1, HCV NS3 domain of genotype 4a (Hepatitis C virus genotype 4a, UniProt O39929).
T1 construct: NS3 protease domain 1-181 aa+N-terminal T7 tag and C-terminal His tag; T7 tag (N); made in house; host or cells: E. coli Rosette (DE3) pLysS
Nature of the assay: Binding assay by Differential Static Light Scattering (DSLS): aggregation temperature of NS3. The following applies: for ΔTagg (aggregation temperature shift of NS3): NS3 domain 15.0 μM with equimolar compound, shift against NS3 alone. The text has this: In an embodiment, DSLS (Senisterra, Markin et al. 2006) is a preferred method to compare the relative binding potency for binding of a compound of Formula I with HCV NS3. DSLS measure the proteins aggregation temperature (Tagg) as an indicator of its stability (Davis, Walker et al. 2010). It is known that the binding of small molecules to proteins causes shifts of the aggregation temperature (ΔTagg) to higher temperature (Shahul Hameed, Haider et al. 2018). One aspect of this invention is using ΔTagg determination as a method to determine the potency of binding of compounds belonging to formula I to the HCV NS3 protease, in comparison to the native NS4A.
The NS3 domain (15.0 μM), alone or mixed with an equimolar equivalent of tested compound or the NS4A, was added to a binding buffer (20.0 mM HEPES, 10.0 mM DTT, 200 mM NaCl, pH 7.60) to a final volume 100 μL. The mixture was incubated at room temperature with gentle shaking for 2 h. Afterwards, 10 μL of the mixture was transferred into a clear bottomed Nunc 384-well plate and covered by 10 μL paraffin oil to minimize evaporation. Protein aggregation was monitored by tracking the change in scattered light that was detected by a charged coupled device (CCD) camera. Snapshot images of the plate were taken every 0.5° C. The pixel intensities in a preselected region of each well were integrated using image analysis software to generate a value representative of the total amount of scattered light in that region. These intensities were then plotted against temperature for each sample well and fitted to obtain the aggregation temperature (Tagg). Aggregation was monitored and analyzed to assess the effect of NS4A and its synthetic analogues on the stability of the NS3 as an indicator of binding. Each experiment was repeated three times (Triplicate). Statistical analysis was performed using GraphPad Prism v. 8.0® and Instat® v. 3.10 software. The Tagg for the compound was only considered if its […] of the calculated Tagg value.
Each experiment was run as triplicate (Experiment 1, 2 and 3) and the standard deviations (ST.DEV.) were calculated. (results table FIG. 31).

In a further assay the target is HCV NS3 (Hepatitis C virus genotype 4a, UniProt O39929). The following applies: mixed with a substrate peptide; cited from earlier work.

As for `CCCCCCNCc1ncc(C(=O)NCc2ccccn2)[nH]1` [Comp 3, 2-((hexylamino)methyl)-N-(pyridin-2-ylmethyl)-1H-imidazole-5-carboxamide], the “ΔTagg (aggregation temperature shift of NS3)” value in assay [1] was found to be 0.47 °C.

In the case of `CNC(=O)CNC(=O)c1cnc(CNCCNC(C)=O)[nH]1` [Comp 8, 2-(((2-acetamidoethyl)amino)methyl)-N-(2-(methylamino)-2-oxoethyl)-1H-imidazole-5-carboxamide], in assay [1], the “ΔTagg (aggregation temperature shift of NS3)” value was 0.48 °C.

Regarding `CCCCCCNCc1nc(C(=O)NCc2ccccn2)c[nH]1` [Comp 9, 2-((hexylamino)methyl)-N-(pyridin-2-ylmethyl)-1H-imidazole-4-carboxamide], the “ΔTagg (aggregation temperature shift of NS3)” value in assay [1] stood at 0.91 °C.

In the case of `O=C(NCc1ccccn1)c1cnc(CNCCOC2CCCCC2)[nH]1` [Comp 10, 2-(((2-(cyclohexyloxy)ethyl)amino)methyl)-N-(pyridin-2-ylmethyl)-1H-imidazole-5-carboxamide], the “ΔTagg (aggregation temperature shift of NS3)” value in assay [1] was 0.43 °C.

In the case of `CC(C)CCCCCNCc1ncc(C(=O)NCc2ccccn2)[nH]1` [Comp 12, 2-(((6-methylheptyl)amino)methyl)-N-(pyridin-2-ylmethyl)-1H-imidazole-5-carboxamide], in assay [1], the “ΔTagg (aggregation temperature shift of NS3)” value turned out to be 0.57 °C.

Turning to `CC(=O)NCCNCc1nc(C(=O)NCc2ccccn2)c[nH]1` [Comp 13, 2-(((2-acetamidoethyl)amino)methyl)-N-(pyridin-2-ylmethyl)-1H-imidazole-5-carboxamide], the “affinity towards the HCV NS3 protein compared to the native viral peptide cofactor NS4A” value in assay [1] (DSLS, FIG. 30-32) is recorded as “equal or higher affinity”. Further, in assay [1], the “ΔTagg (aggregation temperature shift of NS3)” value amounted to 1.35 °C. In addition, the “Tagg (aggregation temperature of NS3 mixed with the substance)” value in assay [1] (NS3 domain 15.0 μM with equimolar substance, incubated 2 h, triplicate, NS3 alone Tagg 43.22° C.) worked out at 44.40 °C. Also, in assay [1] (relative to the shift caused by NS4A), the “ΔTagg higher than that of the HCV NS4A” value turned out to be 14%.

On to `CCCCCCNC(=O)c1ncc(C(=O)NCCCCNC(=N)N)[nH]1` [N5-(4-guanidinobutyl)-N2-n-hexyl-1H-imidazole-2,5-dicarboxamide], for which, on HCV NS3, the “inhibition of HCV NS3 protease function” value was “able to inhibit the HCV NS3 from functioning as a protease”.
